Reference: PMC2759517 (PLoS ONE, 2009)
Where no end group is shown, it is not given here.

Experiments:
[1] = molecular target: HA-tagged PA of FluA (Influenza A virus, UniProt Q2VC91); assay: biochemical; format: binding
[2] = molecular target: T1, HA-tagged PA of FluB (Influenza B virus, UniProt Q9QLI9); assay: biochemical; format: binding
T1 construct: upstream of the initiation codon and antisense primers with a deleted stop codon; made in house; host or cells: human 293T cells, transiently transfected; unpurified cell lysate
T1 sequence (Q9QLI9 whole entry): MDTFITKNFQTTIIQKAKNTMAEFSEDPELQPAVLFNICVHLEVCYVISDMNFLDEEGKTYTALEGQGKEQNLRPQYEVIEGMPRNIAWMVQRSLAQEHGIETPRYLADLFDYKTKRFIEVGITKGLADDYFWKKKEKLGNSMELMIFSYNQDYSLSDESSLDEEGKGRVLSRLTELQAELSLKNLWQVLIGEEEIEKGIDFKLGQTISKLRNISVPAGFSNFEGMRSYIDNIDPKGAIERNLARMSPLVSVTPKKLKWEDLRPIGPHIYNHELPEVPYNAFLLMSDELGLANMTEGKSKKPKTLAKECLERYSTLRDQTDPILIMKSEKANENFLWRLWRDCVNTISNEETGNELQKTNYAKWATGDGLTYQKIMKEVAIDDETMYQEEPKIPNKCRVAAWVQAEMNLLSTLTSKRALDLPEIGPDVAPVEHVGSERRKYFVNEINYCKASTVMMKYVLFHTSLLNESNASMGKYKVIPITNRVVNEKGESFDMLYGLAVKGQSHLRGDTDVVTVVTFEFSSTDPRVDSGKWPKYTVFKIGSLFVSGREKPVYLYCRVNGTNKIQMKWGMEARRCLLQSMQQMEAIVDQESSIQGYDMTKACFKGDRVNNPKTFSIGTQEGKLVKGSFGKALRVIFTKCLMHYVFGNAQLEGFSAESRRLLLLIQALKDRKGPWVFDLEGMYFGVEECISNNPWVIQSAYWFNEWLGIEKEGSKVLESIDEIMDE

Compound	IC50 [1]	IC50 [2]
MDVNPTLLFLK-NH2 [1–11]	900 nM	–
CSCC[C@H](N)C(=O)N[C@@H](CC(=O)O)C(=O)N[C@H](C(=O)N[C@@H](CC(N)=O)C(=O)N1CCC[C@H]1C(=O)N[C@H](C(=O)N[C@@H](CC(C)C)C(=O)N[C@@H](CC(C)C)C(=O)N[C@@H](Cc1ccccc1)C(=O)N[C@@H](CC(C)C)C(=O)N[C@@H](CCCCN)C(=O)N[C@H](C(=O)N1CCC[C@H]1C(=O)N[C@@H](C)C(=O)N[C@@H](CCC(N)=O)C(N)=O)C(C)C)[C@@H](C)O)C(C)C [PB11-15 A]	–	> 3000 nM
MNINPYFLFIDVPIQ-NH2 [PB11-15 B]	–	45 nM
